From patent publication US7244431B2, “Allergy vaccines and their preparation” (priority 2000, dated 2007)

Key:
[1] = test system: IgE antibodies in sera from birch pollen allergic patients; assay: ELISA detection of peptide- and rBet v 1-specific IgE antibodies; type: binding, human
Method: Birch pollen allergic patients suffering from allergic rhinoconjunctivitis and/or asthma to birch pollen and related allergens were selected according to case history indicative for seasonal birch pollinosis and characterized by skin prick testing with birch pollen extract and serological CAP RAST (Pharmacia Diagnostics, Uppsala, Sweden) testing. Total IgE levels in the sera were determined by CAP RIST measurements (Pharmacia). […] Sera from 60 birch pollen allergic patients and a non-atopic individual were used for IgE competition studies. The birch pollen allergic patients group consisted of 25 males and 35 females with a mean age of 37 years (ranging from 19-60 years) (Table 2).
Subsequently, plates were incubated with 1:3 diluted sera from 60 birch pollen allergic patients and from a non-atopic individual overnight at 4° C. Bound IgE antibodies were detected with a 1:1000 diluted alkaline-phosphatase-coupled mouse monoclonal anti-human IgE antibody (Pharmingen, San Diego, Calif.).

[2] = test system: birch pollen allergic patients; assay: Skin prick testing of allergic patients; type: in vivo, human; conditions: 100 μg/ml
Method: SPTs were performed on the individuals forearms as described ([…]. et al. (1997) J. Clin Invest. 99, 1673-168; Dreborg S: (1989) J. Am. Acad. DerMatol. 21, 820-821). […] In addition standardized skin prick solutions (birch pollen extract and histamine) (Allergopharma, Reinbek, Germany) were tested. Reactions were recorded 20 minutes after SPT by photography and by transferring the ballpoint pen-surrounded wheal area with a scotch tape to paper.

CGPGTIKKISFPEGFPFKYVKDRVDEVDHTN [Peptide P3, Bet v 1-derived synthetic peptide, position aa 50-79, one cysteine added]
IgE (OD) ([1]; serum of NHS, non-allergic control individual): — (Dashes indicate reactivities below the cut-off level (OD=0.050))
IgE (OD) ([1]; serum of patient 1): — (Dashes indicate reactivities below the cut-off level (OD=0.050))
IgE (OD) ([1]; serum of patient 2): — (Dashes indicate reactivities below the cut-off level (OD=0.050))
IgE (OD) ([1]; serum of patient 3): — (Dashes indicate reactivities below the cut-off level (OD=0.050))
IgE (OD) ([1]; serum of patient 4): — (Dashes indicate reactivities below the cut-off level (OD=0.050))
IgE (OD) ([1]; serum of patient 5): — (Dashes indicate reactivities below the cut-off level (OD=0.050))
IgE (OD) ([1]; serum of patient 6): — (Dashes indicate reactivities below the cut-off level (OD=0.050))
IgE (OD) ([1]; serum of patient 7): — (Dashes indicate reactivities below the cut-off level (OD=0.050))
IgE (OD) ([1]; serum of patient 8): — (Dashes indicate reactivities below the cut-off level (OD=0.050))
IgE (OD) ([1]; serum of patient 9): — (Dashes indicate reactivities below the cut-off level (OD=0.050))
IgE (OD) ([1]; serum of patient 10): — (Dashes indicate reactivities below the cut-off level (OD=0.050))
IgE (OD) ([1]; serum of patient 11): — (Dashes indicate reactivities below the cut-off level (OD=0.050))
IgE (OD) ([1]; serum of patient 12): — (Dashes indicate reactivities below the cut-off level (OD=0.050))
IgE (OD) ([1]; serum of patient 13): — (Dashes indicate reactivities below the cut-off level (OD=0.050))
IgE (OD) ([1]; serum of patient 14): — (Dashes indicate reactivities below the cut-off level (OD=0.050))
IgE (OD) ([1]; serum of patient 15): — (Dashes indicate reactivities below the cut-off level (OD=0.050))
IgE (OD) ([1]; serum of patient 16): — (Dashes indicate reactivities below the cut-off level (OD=0.050))
IgE (OD) ([1]; serum of patient 17): — (Dashes indicate reactivities below the cut-off level (OD=0.050))
IgE (OD) ([1]; serum of patient 18): — (Dashes indicate reactivities below the cut-off level (OD=0.050))
IgE (OD) ([1]; serum of patient 19): — (Dashes indicate reactivities below the cut-off level (OD=0.050))
IgE (OD) ([1]; serum of patient 20): — (Dashes indicate reactivities below the cut-off level (OD=0.050))
IgE (OD) ([1]; serum of patient 21): — (Dashes indicate reactivities below the cut-off level (OD=0.050))
IgE (OD) ([1]; serum of patient 22): — (Dashes indicate reactivities below the cut-off level (OD=0.050))
IgE (OD) ([1]; serum of patient 23): — (Dashes indicate reactivities below the cut-off level (OD=0.050))
IgE (OD) ([1]; serum of patient 24): — (Dashes indicate reactivities below the cut-off level (OD=0.050))
IgE (OD) ([1]; serum of patient 25): — (Dashes indicate reactivities below the cut-off level (OD=0.050))
IgE (OD) ([1]; serum of patient 26): — (Dashes indicate reactivities below the cut-off level (OD=0.050))
IgE (OD) ([1]; serum of patient 27): — (Dashes indicate reactivities below the cut-off level (OD=0.050))
IgE (OD) ([1]; serum of patient 28): — (Dashes indicate reactivities below the cut-off level (OD=0.050))
IgE (OD) ([1]; serum of patient 29): — (Dashes indicate reactivities below the cut-off level (OD=0.050))
IgE (OD) ([1]; serum of patient 30): — (Dashes indicate reactivities below the cut-off level (OD=0.050))
IgE (OD) ([1]; serum of patient 31): — (Dashes indicate reactivities below the cut-off level (OD=0.050))
IgE (OD) ([1]; serum of patient 32): — (Dashes indicate reactivities below the cut-off level (OD=0.050))
IgE (OD) ([1]; serum of patient 33): — (Dashes indicate reactivities below the cut-off level (OD=0.050))
IgE (OD) ([1]; serum of patient 34): — (Dashes indicate reactivities below the cut-off level (OD=0.050))
IgE (OD) ([1]; serum of patient 35): — (Dashes indicate reactivities below the cut-off level (OD=0.050))
IgE (OD) ([1]; serum of patient 36): — (Dashes indicate reactivities below the cut-off level (OD=0.050))
IgE (OD) ([1]; serum of patient 37): — (Dashes indicate reactivities below the cut-off level (OD=0.050))
IgE (OD) ([1]; serum of patient 38): — (Dashes indicate reactivities below the cut-off level (OD=0.050))
IgE (OD) ([1]; serum of patient 39): — (Dashes indicate reactivities below the cut-off level (OD=0.050))
IgE (OD) ([1]; serum of patient 40): — (Dashes indicate reactivities below the cut-off level (OD=0.050))
IgE (OD) ([1]; serum of patient 41): — (Dashes indicate reactivities below the cut-off level (OD=0.050))
IgE (OD) ([1]; serum of patient 42): — (Dashes indicate reactivities below the cut-off level (OD=0.050))
IgE (OD) ([1]; serum of patient 43): — (Dashes indicate reactivities below the cut-off level (OD=0.050))
IgE (OD) ([1]; serum of patient 44): — (Dashes indicate reactivities below the cut-off level (OD=0.050))
IgE (OD) ([1]; serum of patient 45): — (Dashes indicate reactivities below the cut-off level (OD=0.050))
IgE (OD) ([1]; serum of patient 46): — (Dashes indicate reactivities below the cut-off level (OD=0.050))
IgE (OD) ([1]; serum of patient 47): — (Dashes indicate reactivities below the cut-off level (OD=0.050))
IgE (OD) ([1]; serum of patient 48): — (Dashes indicate reactivities below the cut-off level (OD=0.050))
IgE (OD) ([1]; serum of patient 49): — (Dashes indicate reactivities below the cut-off level (OD=0.050))
IgE (OD) ([1]; serum of patient 50): — (Dashes indicate reactivities below the cut-off level (OD=0.050))
IgE (OD) ([1]; serum of patient 51): — (Dashes indicate reactivities below the cut-off level (OD=0.050))
IgE (OD) ([1]; serum of patient 52): — (Dashes indicate reactivities below the cut-off level (OD=0.050))
IgE (OD) ([1]; serum of patient 53): — (Dashes indicate reactivities below the cut-off level (OD=0.050))
IgE (OD) ([1]; serum of patient 54): — (Dashes indicate reactivities below the cut-off level (OD=0.050))
IgE (OD) ([1]; serum of patient 55): — (Dashes indicate reactivities below the cut-off level (OD=0.050))
IgE (OD) ([1]; serum of patient 56): — (Dashes indicate reactivities below the cut-off level (OD=0.050))
IgE (OD) ([1]; serum of patient 57): — (Dashes indicate reactivities below the cut-off level (OD=0.050))
IgE (OD) ([1]; serum of patient 58): — (Dashes indicate reactivities below the cut-off level (OD=0.050))
IgE (OD) ([1]; serum of patient 59): — (Dashes indicate reactivities below the cut-off level (OD=0.050))
IgE (OD) ([1]; serum of patient 60): — (Dashes indicate reactivities below the cut-off level (OD=0.050))
mean wheal diameter ([2]; individual 1): 0 mm
mean wheal diameter ([2]; individual 2): 0 mm
mean wheal diameter ([2]; individual 3): 0 mm
mean wheal diameter ([2]; individual 4): 0 mm
mean wheal diameter ([2]; individual 5): 0 mm
mean wheal diameter ([2]; individual 6 (allergic, without birch pollen allergy)): 0 mm
